Where “and” joins values, the source holds several entries; their conditions need not be identical. Equal values may be shown once.
Legend:
[1] = Phase 2 trial: anti-fXa activity (chromogenic assay) after apixaban and r-Antidote; type: in vivo, human; conditions: apixaban 5 mg bid (11 doses)
Excerpt: (§1) Pharmacodynamic and safety data are collected through Day 48 and PK through Day 10. A chromogenic assay was used to determine anti-fXa activity.

[2] = Phase 2 trial: plasma concentrations; conditions: apixaban 5 mg bid
Excerpt: as §1

[3] = Total and unbound fXa inhibitor plasma concentration in rats; type: in vivo, rat; conditions: for fraction unbound: intravenous
Protocol: Total rivaroxaban plasma concentration at different time points from FIG. 10A was determined by LC-MS (solid line).
Similar experiments were carried out using betrixaban and apixaban infusion into anesthetized rats (FIG. 10B and FIG. 10C).
Blood sampling catheter patency was maintained by slow infusion of normal saline. Serial blood samples were obtained during the experimental time course. Total fXa inhibitor concentration was measured by HPLC with tandem mass spectrometry.

blood loss [4] = assay: Mouse tail transection blood loss model; type: in vivo; conditions: for blood loss: 15 min, mean±SD, rivaroxaban 50 mg/kg oral, ASA ~100 mg/kg/day 5 days, treatment as labelled
Protocol: Mice (n=5-8/group) were first dosed orally with vehicle or aspirin at ˜100 mg/kg/day for 5 days. Rivaroxaban (50 mg/kg) or vehicle (5 mL/kg) was then dosed orally.
For the mouse tail transection blood loss model, mice (male, C57BL/6, Charles River) were first treated with aspirin at ˜100 mg/kg/day for 5 days via drinking water.

prothrombin time (PT) [5] = assay: Prothrombin time in rabbit liver laceration model; type: in vivo; conditions: for prolongation of PT: rivaroxaban 1 mg/kg, 30 min time point
Protocol: (§2) Anesthetized rabbits were administered vehicle or 1 mg/kg rivaroxaban via IV bolus injection. […] Total rivaroxaban concentration in plasma was measured by LC-MS/MS. […] Anti-fXa activity was measured using a modified chromogenic LMW heparin kit. PT and aPTT was measured using commercial reagents (HemosIL).
(§3) For human in vitro and rat ex vivo experiments, PT was measured using MLA Electra 800 automatic coagulation timer. Innovin was automatically dispensed to plasma samples (100 μL) per manufacturer's instructions. […] For rabbit experiments, PT and aPTT were measured using a Beckman Coulter ACL Elite instrument with HemosIL reagents (available commercially from Instrumentation Laboratories). Whole blood INR (International Normalized Ratio) for animal samples were measured by Hemchron Jr. Signature Cartridges (International Technidyne Corporation) according to manufacturer's instructions.
(§4) Rivaroxaban (1 mg/kg) or vehicle was dosed to anesthetized rabbits by IV bolus over 2 minutes via marginal ear vein catheter. […] Serial blood samples were collected at 0, 30, 35, and 50 minutes post rivaroxaban. Measurements included reduction in blood loss, decrease in unbound rivaroxaban in the plasma using equilibrium dialysis method, anti-fXa activity, PT and aPTT. The method for measuring PT is described previously in Example 6.

[6] = test system: activated partial thromboplastin time (aPTT); assay: Activated partial thromboplastin time in rabbit liver laceration model; type: in vivo; conditions: for prolongation of aPTT: rivaroxaban 1 mg/kg, 30 min time point
Protocol: as §2, §3, §4

blood loss [7] = assay: Rabbit liver laceration blood loss model; type: in vivo; conditions: for increase in blood loss compared with vehicle: rivaroxaban 1 mg/kg IV bolus
Protocol: Rivaroxaban (1 mg/kg) or vehicle was dosed by IV bolus over 2 minutes via marginal ear vein catheter. […] Riva=Rivaroxaban; g=gram
as §2
Anesthetized rabbits were administered vehicle or 1 mg/kg rivaroxaban via IV bolus injection. […] As in the rodent model, total and free rivaroxaban concentration in plasma, anti-fXa activity and PT and activated partial thromboplastin times (aPTT) was measured.
as §4

[8] = Total and free rivaroxaban concentration in rabbit plasma; type: in vivo; conditions: for concentration at 30 min: male, NZW, rabbit, plasma
Protocol: as §2, §4

[9] = Total rivaroxaban concentration in mouse plasma; conditions: following r-Antidote administration (Treat-V)
prothrombin time (PT) [10] = assay: Prothrombin time in human plasma in vitro; type: biochemical; conditions: rivaroxaban 1 μM
Protocol: as §3

blood loss [11] = assay: Rat tail transection model, r-Antidote bolus plus infusion after enoxaparin or fondaparinux; type: in vivo; conditions: fondaparinux 25 mg/kg; protamine 0.9 mg/rat IV bolus; p=0.39
Protocol: Enoxaparin (4.5 mg/kg) or vehicle was dosed by IV bolus over 5 min, followed by treatment with vehicle or two different doses of r-Antidotc (2 mg/rat bolus plus 2 mg/hr infusion and 4 mg/rat bolus plus 4 mg/hr infusion) starting at 10 min. […] Protamine was dosed as an IV bolus only (0.9 mg/rat). […] Anti-fXa activity was normalized to the activity of Treat-II at 5 min time point. *** P-value (Treat-III vs. Treat-II)≤0.0001.
The collected blood samples were processed by freezing the samples at −80° C. to lyse erythrocytes. Hemoglobin concentration and corresponding blood volume were quantified spectrophotometrically (Absorbance at 490 nm) from a standard curve constructed with known volumes of blood.

blood loss [12] = assay: Rat tail transection treatment model, r-Antidote given after bleeding initiated; type: in vivo; conditions: enoxaparin-treated group
Protocol: In a pilot study using this antidote treatment model, anesthetized rats were intravenously (IV) administered either vehicle or enoxaparin (4.5 mg/kg, IV bolus) followed by tail transection at 5 min post-dosing.
Anesthetized rats were administered enoxaparin (4.5 mg/kg) or vehicle by I.V. bolus injection followed by tail transection (2 mm from tip) 5 minutes later. […] The tip of the tail was placed in physiologic saline at 37° C. and blood collected for an additional 45 minutes after tail transection. Blood was lysed by diluting in water and freezing at −80° C. overnight. […] Anti-fXa activity of enoxaparin was measured using a modified chromogenic LMW heparin kit. Tissue factor (TF)-initiated thrombin generation was carried out in human plasma using a fluorogenic thrombin substrate by measurement of change of relative fluorescence unit (RFU) for 10 min following initiation of the reaction.

[13] = upon administration of r-Antidote
[14] = 30 minutes post rivaroxaban (before treatment)

COc1ccc(-n2nc(C(N)=O)c3c2C(=O)N(c2ccc(N4CCCCC4=O)cc2)CC3)cc1 [apixaban]
time of peak anti-fXa activity post last apixaban dose [1]: 3 h
mean apixaban plasma concentration [2]: 474 nM
fraction unbound ([3]; male, SD, rat, plasma): 0.0005
concentration at 30 min ([3]; male, SD, rat, plasma, iv): 1400 nM
fraction unbound at 30 min ([3]; male, SD, rat, plasma, iv): 0.015
concentration at 30 min [3, 13]: 4200 nM

CC(=O)Oc1ccccc1C(=O)O [aspirin]
blood loss (blood loss [4]): 118 ± 71 µL

COc1ccc(NC(=O)c2ccc(C(=N)N(C)C)cc2)c(C(=O)Nc2ccc(Cl)cn2)c1 [betrixaban]
fraction unbound ([3]; male, SD, rat, plasma): 0.003
concentration at 30 min ([3]; male, SD, rat, plasma, iv): 200 nM
fraction unbound at 30 min ([3]; male, SD, rat, plasma, iv): 0.41
concentration at 30 min [3, 13]: 2000 nM

O=C(NC[C@H]1CN(c2ccc(N3CCOCC3=O)cc2)C(=O)O1)c1ccc(Cl)s1 [rivaroxaban]
Prothrombin Times (prothrombin time (PT) [5]; 0 minutes post rivaroxaban): 6.2 ± 0.4 s
Prothrombin Times (prothrombin time (PT) [5]; [14]): 15.8 ± 1.5 s
Prothrombin Times (prothrombin time (PT) [5]; 35 minutes post rivaroxaban): 15.0 ± 1.6 s
Prothrombin Times (prothrombin time (PT) [5]; 50 minutes post rivaroxaban): 13.8 ± 1.3 s
prolongation of PT (prothrombin time (PT) [5]): 2.3 fold and 2.5 fold
prolongation of PT (prothrombin time (PT) [5]; listed as Rivaroxaban): 2.3 fold
blood loss (blood loss [4]): 216 ± 222 µL
increase in blood loss (blood loss [4]; ASA-treated mice (~100 mg/kg/day, 5 days), single oral Riva 50 mg/kg, Riva+ASA vs. ASA): 3.4 fold
Activated Partial Thromboplastin Times ([6]; 0 minutes post rivaroxaban): 28 ± 5 s
Activated Partial Thromboplastin Times [6, 14]: 49 ± 8 s
Activated Partial Thromboplastin Times ([6]; 35 minutes post rivaroxaban): 48 ± 8 s
Activated Partial Thromboplastin Times ([6]; 50 minutes post rivaroxaban): 48 ± 8 s
prolongation of aPTT [6]: 1.9 fold and 1.8 fold
prolongation of aPTT ([6]; listed as Rivaroxaban): 1.9 fold
blood loss due to rivaroxaban anticoagulation as share of total blood volume (blood loss [7]; rivaroxaban 1 mg/kg): approximately 10%
increase in blood loss compared with vehicle (blood loss [7]): 3.2 fold and > 3 fold
increase in blood loss compared with vehicle (blood loss [7]; listed as Rivaroxaban): 3.2 fold
blood loss (blood loss [7]; rivaroxaban group, 15 min collection): 22.7±9.3 grams
free (non-protein bound) fraction of rivaroxaban in plasma ([8]; after r-Antidote 75 mg/rabbit): < 0.5%
free (non-protein bound) fraction of rivaroxaban in plasma ([8]; before r-Antidote): 26%
concentration at 30 min ([8]; intravenous, 1 mg/kg, just prior to treatment, dose group as labelled): 1200 nM
concentration at 30 min ([8]; 30 min time point, 1 mg/kg IV): 1650 nM
increase of total rivaroxaban concentration in plasma [9]: 7.8 fold
concentration at 30 min ([3]; male, SD, rat, plasma, iv): 1400 nM
fraction unbound at 30 min ([3]; male, SD, rat, plasma, iv): 0.022
concentration at 30 min [3, 13]: 1900 nM
effect on prothrombin time (prothrombin time (PT) [10]): prolongation of prothrombin time

Protamine
effect on fondaparinux anticoagulation (blood loss [11]): no statistically significant effect

enoxaparin
share of blood loss occurring within first 10 min prior to treatment (blood loss [12]): ~26%
total blood loss as share of animal's total blood volume (blood loss [12]): about 5%
